Laboratory results as given in the supplement of paper PMC11451515.

Test system: SEM cells
Test: cell viability relative to DMSO control; higher = less cytotoxic
Conditions: 48 h
Summary of the method: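 NOMO1 or SEM (500 cells/well) or P12-Ichikawa (1000 cells/well) leukemia cells were adapted for at least four passages in each medium. They were seeded in 1536-well plates (5 μl) and pin-dosed with library compounds in DMSO over an 11-point threefold series, 47 μM to 0.79 nM. CellTiter-Glo One luminescence was read after 48 h at 37°C. Viability is the per-plate percentage relative to DMSO wells, with cell-free wells as background.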

[1] = HPLM + 10% dialyzed FBS, 0.000781 µM
[2] = HPLM + 10% dialyzed FBS, 0.00234 µM
[3] = HPLM + 10% dialyzed FBS, 0.00702 µM
[4] = HPLM + 10% dialyzed FBS, 0.0211 µM
[5] = HPLM + 10% dialyzed FBS, 0.0632 µM
[6] = HPLM + 10% dialyzed FBS, 0.19 µM
[7] = HPLM + 10% dialyzed FBS, 0.569 µM
[8] = HPLM + 10% dialyzed FBS, 1.71 µM
[9] = HPLM + 10% dialyzed FBS, 5.12 µM
[10] = HPLM + 10% dialyzed FBS, 15.4 µM
[11] = HPLM + 10% dialyzed FBS, 46.1 µM
[12] = RPMI 5 mM glucose + 10% FBS, 0.000781 µM
[13] = RPMI 5 mM glucose + 10% FBS, 0.00234 µM
[14] = RPMI 5 mM glucose + 10% FBS, 0.00702 µM
[15] = RPMI 5 mM glucose + 10% FBS, 0.0211 µM
[16] = RPMI 5 mM glucose + 10% FBS, 0.0632 µM
[17] = RPMI 5 mM glucose + 10% FBS, 0.19 µM
[18] = RPMI 5 mM glucose + 10% FBS, 0.569 µM
[19] = RPMI 5 mM glucose + 10% FBS, 1.71 µM
[20] = RPMI 5 mM glucose + 10% FBS, 5.12 µM
[21] = RPMI 5 mM glucose + 10% FBS, 15.4 µM
[22] = RPMI 5 mM glucose + 10% FBS, 46.1 µM
[23] = RPMI 5 mM glucose + 10% dialyzed FBS, 0.000781 µM
[24] = RPMI 5 mM glucose + 10% dialyzed FBS, 0.00234 µM
[25] = RPMI 5 mM glucose + 10% dialyzed FBS, 0.00702 µM
[26] = RPMI 5 mM glucose + 10% dialyzed FBS, 0.0211 µM
[27] = RPMI 5 mM glucose + 10% dialyzed FBS, 0.0632 µM
[28] = RPMI 5 mM glucose + 10% dialyzed FBS, 0.19 µM
[29] = RPMI 5 mM glucose + 10% dialyzed FBS, 0.569 µM
[30] = RPMI 5 mM glucose + 10% dialyzed FBS, 1.71 µM
[31] = RPMI 5 mM glucose + 10% dialyzed FBS, 5.12 µM
[32] = RPMI 5 mM glucose + 10% dialyzed FBS, 15.4 µM
[33] = RPMI 5 mM glucose + 10% dialyzed FBS, 46.1 µM

Structure (SMILES)	cell viability [1] [%]	cell viability [2] [%]	cell viability [3] [%]	cell viability [4] [%]	cell viability [5] [%]	cell viability [6] [%]	cell viability [7] [%]	cell viability [8] [%]	cell viability [9] [%]	cell viability [10] [%]	cell viability [11] [%]	cell viability [12] [%]	cell viability [13] [%]	cell viability [14] [%]	cell viability [15] [%]	cell viability [16] [%]	cell viability [17] [%]	cell viability [18] [%]	cell viability [19] [%]	cell viability [20] [%]	cell viability [21] [%]	cell viability [22] [%]	cell viability [23] [%]	cell viability [24] [%]	cell viability [25] [%]	cell viability [26] [%]	cell viability [27] [%]	cell viability [28] [%]	cell viability [29] [%]	cell viability [30] [%]	cell viability [31] [%]	cell viability [32] [%]	cell viability [33] [%]
C[C@]12CC[C@@H]3c4ccc(O)cc4CC[C@H]3[C@@H]1CC[C@@H]2O	109	110	121	115	98.9	119	113	97.4	95.7	85.2	23.4	124	124	129	142	125	123	118	114	113	84	21.1	127	118	124	144	116	121	114	115	105	82	16.5
CCCc1nc2c(C)cc(-c3nc4ccccc4n3C)cc2n1Cc1ccc(-c2ccccc2C(=O)O)cc1	117	115	123	120	124	140	100	71.4	127	140	144	114	121	152	133	124	124	101	84.1	159	138	137	103	138	119	92.4	120	125	87.8	64	120	116	132
CO[C@@H]1[C@@H](OC(N)=O)[C@@H](O)[C@H](OC2=CC=C3\C(=C(NC(=O)C4=CC=C([O-])C(=C4)CC=C(C)C)/C(=O)OC3=C2C)O)OC1(C)C	106	110	123	97.7	118	116	102	101	121	98.7	117	–	–	–	–	–	–	–	–	–	–	–	105	106	109	114	111	115	109	101	107	81.5	110
FC1=CC=C(CN2\C=C/C=C(/C(=O)N[C@@H](COC3=CC4=C(NC(=O)N4)C=C3)C5=CC=CC=C5)C2=O)C=C1F	79.5	85.6	69.3	94.2	93.8	98.8	93.3	77.5	61	54.6	41.8	93.6	108	85.9	119	109	108	93.8	90	57.1	59.4	38.5	79.8	91.2	78.5	93.4	84.5	93.1	81	76.9	57.4	49.8	44.3
O=C(NCCCNc1nc(Nc2cccc(NC(=O)N3CCCC3)c2)ncc1I)c1cccs1	55.6	91.1	102	75.8	46.5	60.8	50.4	27.2	32.9	76.7	70.6	74	124	124	111	68.7	85.1	33.1	13.4	37.5	77.7	68.9	46.5	96.9	87.4	78.9	36.8	64.9	42.6	23.9	28.4	79.6	62.6
C[N]1N=CC2=C1C=C(C(=C2)OC3=CC=C(NC(=O)\C4=C\C=C(\C)N(C4=O)C5=CC=C(F)C=C5)C=C3F)C6=C[NH]N=C6	98.7	93.2	94.4	94.5	62.3	54	48.3	43	11.1	6.77	7.19	91.5	100	96.6	84.3	54.7	56.1	59.1	38.9	9.63	8.07	8.6	98.5	105	97.8	89.4	54.5	52.1	50.8	43.7	11.4	7.29	7.53
N#CC1(c2ccc(NC(=O)c3cccnc3NCc3ccncc3)cc2)CCCC1	120	123	123	118	116	102	124	113	91	80.7	81.4	–	–	–	–	–	–	–	–	–	–	–	–	–	–	–	–	–	–	–	–	–	–
O=[S+]([O-])(/N=C/c1c(O)ccc2ccccc12)c1cccs1	97	114	101	109	110	110	112	66.8	104	88.3	81.9	113	116	108	106	113	120	102	74.3	93.3	94.5	68.5	98.7	136	109	112	131	118	115	79.5	98.2	91.1	98.7
C[C@H](NC(=O)Cc1cc(F)cc(F)c1)C(=O)N[C@@H]1C(=O)N(C)c2ccccc2-c2ccccc21	84.8	106	103	77.7	102	102	110	106	35.4	3.3	2.09	94.2	101	88.5	80.6	107	103	98.1	16	4.52	3.08	1.53	107	103	100	79.4	112	109	113	105	5.44	3.49	2.01
CCC(=O)OC1CCC2C3CCC/4=C/C(=O)CC[C@@]4(C)C3CC[C@]12C (some centres not stated)	104	107	110	118	132	115	128	141	123	121	137	102	107	116	119	133	138	124	128	120	125	117	102	111	102	114	139	114	115	137	120	127	127
CN(C)/[N+]([O-])=N/Oc1cc(ON[N+](=O)N2CCN(C(=O)c3cc(Cc4n[nH]c(=O)c5ccccc45)ccc3F)CC2)c([N+](=O)[O-])cc1[N+](=O)[O-]	94	97.2	103	97.7	100	58.3	101	116	109	110	105	99	101	93.1	93.5	100	55.9	98.2	109	111	113	103	89.9	79.2	112	103	109	40.1	137	122	106	100	91.8
NC(=O)c1cnc(-c2ccc(C3(N)CCC3)cc2)c(-c2ccccc2)c1	110	120	137	111	111	127	133	90.7	73.2	50.3	30.9	120	134	123	106	108	127	130	85.1	78	43.2	24.5	121	125	127	120	123	120	133	91.5	67	43.5	35.9
COc1cccc2c(NCc3ccccc3)nc(-n3c(N)nc4ccccc43)nc12	81.2	88.4	104	93.6	89.1	90.6	83.2	92.2	64.1	29.6	8.4	95.2	92.8	98.7	97.5	94.8	87.6	95	72.1	54.9	24.3	7.18	81.8	73.7	91.9	99.8	111	106	85.9	76.5	65.1	45.2	9.78
NC(=O)c1ccc(-c2nc(-c3ccc4c(c3)OCO4)c(-c3ccccn3)[nH]2)cc1	123	116	128	25.6	130	121	124	125	128	129	122	93.4	85.5	98.2	9.45	89.5	86.8	92.1	93.7	102	86.3	66.9	108	123	110	18.9	120	111	128	131	123	134	102
C=CC(=O)Nc1cccc(Oc2nc(Nc3ccc(N4CCN(C)CC4)cc3OC)ncc2Cl)c1	58.4	72.7	56.4	65.8	74	81.1	72.3	68.5	33.2	48	13.3	80.4	89.2	60.5	88.2	94.2	91.2	56.4	65.3	22.6	41.6	5.05	62.5	69.8	52.6	58.2	70.8	72.9	64.1	42.3	24.1	41.8	18
